Usually IC50 stands for the point on the concentration scale where inhibition reaches its midpoint.

SMILES strings stand for the structures.

In the first experiment the target is T1, P2X7 receptor (Homo sapiens, UniProt Q99572).
T1 construct: host or cells: THP-1 cells differentiated with LPS and IFN-γ
T1 sequence (Q99572 1-595): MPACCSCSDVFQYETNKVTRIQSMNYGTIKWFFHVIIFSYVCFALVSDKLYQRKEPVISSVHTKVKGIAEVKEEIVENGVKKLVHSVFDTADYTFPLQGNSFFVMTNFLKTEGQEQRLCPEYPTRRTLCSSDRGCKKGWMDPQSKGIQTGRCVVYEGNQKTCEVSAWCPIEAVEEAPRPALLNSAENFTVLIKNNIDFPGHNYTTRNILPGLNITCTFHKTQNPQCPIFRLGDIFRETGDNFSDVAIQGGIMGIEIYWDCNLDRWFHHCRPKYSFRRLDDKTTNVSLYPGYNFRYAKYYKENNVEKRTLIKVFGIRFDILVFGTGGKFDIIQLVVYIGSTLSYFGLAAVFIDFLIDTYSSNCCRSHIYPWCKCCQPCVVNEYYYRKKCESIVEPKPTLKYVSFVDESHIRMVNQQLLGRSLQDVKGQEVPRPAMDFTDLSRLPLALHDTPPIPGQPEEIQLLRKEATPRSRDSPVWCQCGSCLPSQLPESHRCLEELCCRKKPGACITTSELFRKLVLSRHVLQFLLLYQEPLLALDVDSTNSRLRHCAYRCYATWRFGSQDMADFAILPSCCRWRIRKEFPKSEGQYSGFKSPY
Description: IL-1β release assay in differentiated THP-1 cells stimulated with BzATP (Example 9); % inhibition and IC50. The experiment is classed as cell-based. The conditions noted are these: 0.3 μM compound; differentiated THP-1 cells, BzATP 250 uM; read-out: IL-1β % Inhib. @ 0.3 μM. The protocol: The cells are then pretreated for 30 minutes with the compound of interest at the appropriate concentration in RPMI media containing 100 IU/mL penicillin, 100 ug/mL streptomycin. […] 30 uL of cell supernatant is then collected and IL-1β levels determined via ELISA (R&D systems Cat. # HSLB50) according to manufacturer's recommendations using the Tecan Safire plate reader. Background adjusted IL-1β levels of drug treated and non-treated cells are used to calculate the percent inhibition.
The compounds set forth in Table 1 were tested for activity in a cellular model as described herein.
As to `C[C@H](C(N)=O)n1ccc2c(NC(=O)Cc3ccc(C(F)(F)F)cc3)c(Cl)ccc2c1=O` [Compound 316, (R)-2-{6-Chloro-1-oxo-5-[2-(4-trifluoromethyl-phenyl)-acetylamino]-1H-isoquinolin-2-yl}-propionamide], the inhibition at 0.3 µM was 51 to 75%.

Still in this experiment, the particulars now being: THP-1 cells differentiated with LPS and IFN-γ, 30 min pretreatment, BzATP 250 uM, IL-1β by ELISA.
In the case of `C[C@H](C(=O)Nc1cccc2c(=O)n([C@@H](C(N)=O)c3ccccc3)ccc12)c1ccc(Cl)c(Cl)c1` [Compound 278, (S)—N-[2-((R)-Carbamoyl-phenyl-methyl)-1-oxo-1,2-dihydro-isoquinolin-5-yl]-2-(3,4-dichloro-phenyl)-propionamide], the IC50 is 0.058 µM.

Consider `C[C@H](C(=O)Nc1cccc2c(=O)n([C@@H](C(N)=O)c3ccccc3)ccc12)c1ccc(Cl)cc1` [Compound 279, (S)—N-[2-((R)-Carbamoyl-phenyl-methyl)-1-oxo-1,2-dihydro-isoquinolin-5-yl]-2-(4-chloro-phenyl)-propionamide], for which the IC50 came out at 0.106 µM.

As to `CC(C)C[C@H](CO)n1ccc2c(NC(=O)Cc3ccc(Cl)c(C(F)(F)F)c3)cccc2c1=O` [Compound 280], the IC50 was 0.121 µM.

As to `CC(C)[C@H](C(=O)NC1CC1)n1ccc2c(NC(=O)[C@@H](C)c3ccc(Cl)cc3)cccc2c1=O` [Compound 281, (R)-2-{5-[(S)-2-(4-Chloro-phenyl)-propionylamino]-1-oxo-1H-isoquinolin-2-yl}-N-cyclopropyl-3-methyl-butyramide], the IC50 is 0.00739 µM.

As for `CC(C)[C@H](C(=O)NC1CC1)n1ccc2c(NC(=O)[C@H](C)c3ccc(Cl)cc3)cccc2c1=O` [Compound 282], the IC50 worked out at 0.0338 µM.

For the molecule `CC(C)[C@H](C(N)=O)n1ccc2c(NC(=O)[C@@H](C)c3ccc(Cl)cc3)cccc2c1=O` [Compound 283], the IC50 amounted to 0.0097 µM.

As to `CC(C)[C@H](C(N)=O)n1ccc2c(NC(=O)[C@H](C)c3ccc(Cl)cc3)cccc2c1=O` [Compound 284, (R)-2-{5-[(R)-2-(4-Chloro-phenyl)-propionylamino]-1-oxo-1H-isoquinolin-2-yl}-3-methyl-butyramide], the IC50 worked out at 0.00691 µM.

Take `C[C@H](C(N)=O)n1ccc2c(NC(=O)Cc3cccc(C(F)(F)F)c3F)cccc2c1=O` [Compound 285]: the IC50 was 0.00662 µM.

With `C[C@H](C(N)=O)n1ccc2c(NC(=O)Cc3c(F)cccc3C(F)(F)F)cccc2c1=O` [Compound 286], the IC50 came out at 0.374 µM.

Regarding `C[C@H](C(N)=O)n1ccc2c(NC(=O)Cc3ccc(C#N)cc3)cccc2c1=O` [Compound 287], the IC50 was 0.332 µM.

`C[C@H](C(N)=O)n1ccc2c(NC(=O)Cc3cccc(C#N)c3)cccc2c1=O` [Compound 288]: the IC50 is greater than 1 µM.

Consider `C[C@H](C(N)=O)n1ccc2c(NC(=O)Cc3ccc(-c4ccccc4)cc3)cccc2c1=O` [Compound 289], for which the IC50 was 0.053 µM.

For `C[C@H](C(N)=O)n1ccc2c(NC(=O)Cc3ccc(Cl)cc3F)cccc2c1=O` [Compound 290], the IC50 is 0.00763 µM.

As for `C[C@H](C(N)=O)n1ccc2c(NC(=O)Cc3ccc(F)cc3Cl)cccc2c1=O` [Compound 291], the 50% inhibitory concentration (IC50) came out at 0.0206 µM.

Consider `C[C@H](C(N)=O)n1ccc2c(NC(=O)Cc3c(F)cccc3F)cccc2c1=O` [Compound 292], for which the IC50 was greater than 1 µM.

On to `C[C@H](C(N)=O)n1ccc2c(NC(=O)Cc3ccc(F)cc3F)cccc2c1=O` [Compound 293], for which the IC50 came out at 0.0444 µM.

In the case of `C[C@H](C(N)=O)n1ccc2c(NC(=O)Cc3ccccc3F)cccc2c1=O` [Compound 294], the IC50 stood at 0.663 µM.

In the case of `C[C@H](C(N)=O)n1ccc2c(NC(=O)Cc3ccc(F)cc3C(F)(F)F)cccc2c1=O` [Compound 295], the IC50 was 0.184 µM.

On to `C[C@H](C(N)=O)n1ccc2c(NC(=O)Cc3ccc(C(F)(F)F)cc3F)cccc2c1=O` [Compound 296], for which the IC50 came out at 0.0179 µM.

Regarding `C[C@H](C(N)=O)n1ccc2c(NC(=O)Cc3cccc(C(F)(F)F)c3)cccc2c1=O` [Compound 297], the IC50 came to 0.0166 µM.

For `C[C@H](C(N)=O)n1ccc2c(NC(=O)Cc3ccc(C(F)(F)F)cc3)cccc2c1=O` [Compound 298], the IC50 worked out at 0.00791 µM.

As for `CC(C(=O)Nc1cccc2c(=O)n([C@H](C)C(N)=O)ccc12)c1ccc(F)cc1` (stereo partly shown) [Compound 299], the IC50 was 0.0248 µM.

Take `C[C@H](C(N)=O)n1ccc2c(NC(=O)Cc3ccc(Cl)c(F)c3)cccc2c1=O` [Compound 300]: the IC50 turned out to be 0.00596 µM.

On to `C[C@H](C(N)=O)n1ccc2c(NC(=O)Cc3ccc(F)c(Cl)c3)cccc2c1=O` [Compound 301], for which the IC50 was 0.00357 µM.

As for `Cc1ccc(CC(=O)Nc2cccc3c(=O)n([C@H](C)C(N)=O)ccc23)cc1F` [Compound 302], the IC50 turned out to be 0.0322 µM.

`C[C@H](C(N)=O)n1ccc2c(NC(=O)Cc3ccc(F)c(F)c3)cccc2c1=O` [Compound 303]: the IC50 was found to be 0.0155 µM.

With `C[C@H](C(N)=O)n1ccc2c(NC(=O)Cc3ccc(F)c(C(F)(F)F)c3)cccc2c1=O` [Compound 304], the IC50 came out at 0.00584 µM.

For `C[C@H](C(N)=O)n1ccc2c(NC(=O)Cc3cc(F)c(F)cc3F)cccc2c1=O` [Compound 305], the IC50 is 0.0363 µM.

As to `C[C@H](C(N)=O)n1ccc2c(NC(=O)Cc3ccc(C(F)(F)F)c(F)c3)cccc2c1=O` [Compound 306], the half-maximal inhibitory concentration (IC50) turned out to be 0.00507 µM.

As to `C[C@H](C(N)=O)n1ccc2c(NC(=O)Cc3ccc(F)c(Br)c3)cccc2c1=O` [Compound 307], the IC50 is 0.0185 µM.

On to `C[C@H](C(=O)Nc1cccc2c(=O)n([C@H](C)C(=O)NC3CC3)ccc12)c1ccc(Cl)cc1` [Compound 308, (R)-2-{5-[(S)-2-(4-Chloro-phenyl)-propionylamino]-1-oxo-1H-isoquinolin-2-yl}-N-cyclopropyl-propionamide], for which the IC50 came to 0.302 µM.

With `C[C@H](C(N)=O)n1ccc2c(NC(=O)Cc3ccccn3)cccc2c1=O` [Compound 309], the IC50 is greater than 1 µM.

For the molecule `C[C@@H](C(N)=O)n1ccc2c(NC(=O)Cc3ccc(Cl)nc3)cccc2c1=O` [Compound 310], the IC50 is greater than 1 µM.

Take `C[C@H](C(N)=O)n1ccc2c(NC(=O)Cc3ccc(Cl)nc3)cccc2c1=O` [Compound 312]: the IC50 was greater than 1 µM.

On to `C[C@H](C(N)=O)n1ccc2c(NC(=O)Cc3cccc(OC(F)(F)F)c3)cccc2c1=O` [Compound 313], for which the IC50 came out at 0.713 µM.

On to `C[C@H](C(=O)Nc1cccc2c(=O)n(C(C(N)=O)c3ccc(Cl)cc3)ccc12)c1ccc(Cl)cc1` (stereo partly drawn) [Compound 315, (S)—N-{2-[Carbamoyl-(4-chloro-phenyl)-methyl]-1-oxo-1,2-dihydro-isoquinolin-5-yl}-2-(4-chloro-phenyl)-propionamide], for which the IC50 came out at 0.221 µM.

On to `C[C@H](C(N)=O)n1ccc2c(NC(=O)Cc3ccc(C(F)(F)F)cc3)c(Cl)ccc2c1=O` [Compound 316, (R)-2-{6-Chloro-1-oxo-5-[2-(4-trifluoromethyl-phenyl)-acetylamino]-1H-isoquinolin-2-yl}-propionamide], for which the IC50 worked out at 0.00229 µM.

In the case of `C[C@@H](C(=O)Nc1cccc2c(=O)n([C@@H](C)CO)ccc12)c1ccc(Cl)c(Cl)c1` [Compound 317], the IC50 came to 0.0937 µM.

On to `C[C@@H](CO)n1ccc2c(NC(=O)Cc3ccc(C(F)(F)F)cc3)cccc2c1=O` [Compound 318], for which the IC50 came to 0.133 µM.

In the case of `C[C@H](CO)n1ccc2c(NC(=O)Cc3ccc(C(F)(F)F)cc3)cccc2c1=O` [Compound 319], the IC50 was 0.0251 µM.

`C[C@H](CO)n1ccc2c(NC(=O)[C@H](C)c3ccc(Cl)c(Cl)c3)cccc2c1=O` [Compound 320]: the IC50 was 0.00954 µM.

For the molecule `C[C@H](C(=O)Nc1cccc2c(=O)n([C@H](C)CO)ccc12)c1ccc(Cl)c(Cl)c1` [Compound 321], the IC50 came out at 0.0134 µM.

These data come from patent US7816371B2, “Bicycloheteroaryl compounds as P2X7 modulators and uses thereof” (Renovis, Inc., priority 2006, dated 2010).
